# From patent publication US9382254B2, “Compounds and pharmaceutical compositions thereof for the treatment of cystic fibrosis” (Galapagos NV, priority 2013, dated 2016)
# Tests used:
# CFTR G551D mutant = molecular target: T1, CFTR G551D mutant (Homo sapiens, UniProt P13569, G551D); test: YFP-halide influx assay for the CFTR-G551D mutation; assay type: cell-based; conditions: HEK293 cells, forskolin 10.67 μM
# T1 construct: expressed in transfected cells; host or cells: HEK293 (reverse transfection with plasmid)
# T1 sequence (P13569 whole entry G551D): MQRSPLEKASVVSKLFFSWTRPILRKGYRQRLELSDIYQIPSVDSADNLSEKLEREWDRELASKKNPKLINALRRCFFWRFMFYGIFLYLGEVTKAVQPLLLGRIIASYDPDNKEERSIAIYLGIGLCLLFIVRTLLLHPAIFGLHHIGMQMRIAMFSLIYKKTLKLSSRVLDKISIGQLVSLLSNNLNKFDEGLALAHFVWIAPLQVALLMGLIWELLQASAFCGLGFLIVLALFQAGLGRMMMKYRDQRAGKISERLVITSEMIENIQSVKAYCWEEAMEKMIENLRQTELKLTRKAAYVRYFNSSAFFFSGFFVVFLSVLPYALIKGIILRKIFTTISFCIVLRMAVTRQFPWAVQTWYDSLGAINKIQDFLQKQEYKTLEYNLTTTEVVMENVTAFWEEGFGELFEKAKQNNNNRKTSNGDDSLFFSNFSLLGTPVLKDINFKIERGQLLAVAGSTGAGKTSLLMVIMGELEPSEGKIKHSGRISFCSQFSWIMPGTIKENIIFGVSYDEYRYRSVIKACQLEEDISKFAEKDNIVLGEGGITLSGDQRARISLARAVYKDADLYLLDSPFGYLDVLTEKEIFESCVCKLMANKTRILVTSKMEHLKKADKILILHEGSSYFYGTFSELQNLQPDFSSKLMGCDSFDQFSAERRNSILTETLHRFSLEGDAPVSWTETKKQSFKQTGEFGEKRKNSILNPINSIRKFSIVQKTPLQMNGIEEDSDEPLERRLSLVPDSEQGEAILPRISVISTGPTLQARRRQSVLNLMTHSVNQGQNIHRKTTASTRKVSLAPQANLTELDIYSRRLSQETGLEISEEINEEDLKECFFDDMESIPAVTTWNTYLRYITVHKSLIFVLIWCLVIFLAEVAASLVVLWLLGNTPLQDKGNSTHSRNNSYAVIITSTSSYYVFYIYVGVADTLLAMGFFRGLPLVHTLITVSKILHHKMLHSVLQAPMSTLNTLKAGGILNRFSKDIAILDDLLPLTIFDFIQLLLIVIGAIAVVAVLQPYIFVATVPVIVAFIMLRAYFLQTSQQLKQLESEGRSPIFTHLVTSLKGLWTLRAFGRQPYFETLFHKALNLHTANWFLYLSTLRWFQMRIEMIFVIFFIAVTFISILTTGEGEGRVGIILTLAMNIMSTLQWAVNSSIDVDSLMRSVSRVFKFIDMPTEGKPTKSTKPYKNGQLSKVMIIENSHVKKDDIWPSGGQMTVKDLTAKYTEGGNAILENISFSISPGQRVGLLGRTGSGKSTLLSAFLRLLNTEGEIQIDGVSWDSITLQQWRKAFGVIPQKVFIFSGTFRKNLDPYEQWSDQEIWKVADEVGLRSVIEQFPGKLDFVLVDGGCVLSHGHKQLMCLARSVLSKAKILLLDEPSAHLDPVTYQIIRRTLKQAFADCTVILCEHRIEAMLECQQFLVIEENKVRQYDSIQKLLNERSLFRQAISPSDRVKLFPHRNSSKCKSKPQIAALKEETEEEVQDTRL
# From the text: The YFP halide influx assay measures the functionality of the cystic fibrosis Transmembrane Conductance regulator (CFTR) channels. The assay is used to evaluate the capacity of compounds to increase the channel opening of existing mutant CFTR channels in the membrane. It makes use of the observation that the yellow fluorescent protein (YFP) variant YFP H148Q, I152L, […] has its fluorescence substantially quenched by halide ions like Cl^− and I^−. (Galietta, Haggie, & Verkman, 2001)
# For this purpose, HEK293-cells are seeded in 96 well plates. During seeding, the cells are reverse-transfected with plasmid vectors that direct the expression of the CFTR G551D mutant and of the YFP reporter. Cells are incubated at 37° C., 5% CO2 for 24 hours so as to allow for sufficient expression of the CFTR protein.
# (§1) The I^−-induced quenching of fluorescence is recorded immediately after injection of I^− for 7 seconds. The capacity of a compound to increase the channel opening is directly correlated with the decrease in fluorescence, and is expressed as (1-(fluorescence after 7 seconds (F)/fluorescence before injection (F0))) and an EC50 can be derived from a (1-F/F0) vs compound concentration plot.
# CFTR ΔF508 mutant = molecular target: T2, CFTR ΔF508 mutant (Homo sapiens, UniProt P13569, DEL508-508); test: YFP-halide influx assay for the CFTR-ΔF508 mutation (384 well, FDSS/μCell); assay type: cell-based; conditions: CFBE41o- cells, CFTR-ΔF508, 1×D-PBS, fluorescence after 36 seconds
# T2 construct: expressed in transfected cells; host or cells: CFBE41o- (adenoviral transduction)
# T2 sequence (P13569 with tags, fused parts or gaps DEL508-508): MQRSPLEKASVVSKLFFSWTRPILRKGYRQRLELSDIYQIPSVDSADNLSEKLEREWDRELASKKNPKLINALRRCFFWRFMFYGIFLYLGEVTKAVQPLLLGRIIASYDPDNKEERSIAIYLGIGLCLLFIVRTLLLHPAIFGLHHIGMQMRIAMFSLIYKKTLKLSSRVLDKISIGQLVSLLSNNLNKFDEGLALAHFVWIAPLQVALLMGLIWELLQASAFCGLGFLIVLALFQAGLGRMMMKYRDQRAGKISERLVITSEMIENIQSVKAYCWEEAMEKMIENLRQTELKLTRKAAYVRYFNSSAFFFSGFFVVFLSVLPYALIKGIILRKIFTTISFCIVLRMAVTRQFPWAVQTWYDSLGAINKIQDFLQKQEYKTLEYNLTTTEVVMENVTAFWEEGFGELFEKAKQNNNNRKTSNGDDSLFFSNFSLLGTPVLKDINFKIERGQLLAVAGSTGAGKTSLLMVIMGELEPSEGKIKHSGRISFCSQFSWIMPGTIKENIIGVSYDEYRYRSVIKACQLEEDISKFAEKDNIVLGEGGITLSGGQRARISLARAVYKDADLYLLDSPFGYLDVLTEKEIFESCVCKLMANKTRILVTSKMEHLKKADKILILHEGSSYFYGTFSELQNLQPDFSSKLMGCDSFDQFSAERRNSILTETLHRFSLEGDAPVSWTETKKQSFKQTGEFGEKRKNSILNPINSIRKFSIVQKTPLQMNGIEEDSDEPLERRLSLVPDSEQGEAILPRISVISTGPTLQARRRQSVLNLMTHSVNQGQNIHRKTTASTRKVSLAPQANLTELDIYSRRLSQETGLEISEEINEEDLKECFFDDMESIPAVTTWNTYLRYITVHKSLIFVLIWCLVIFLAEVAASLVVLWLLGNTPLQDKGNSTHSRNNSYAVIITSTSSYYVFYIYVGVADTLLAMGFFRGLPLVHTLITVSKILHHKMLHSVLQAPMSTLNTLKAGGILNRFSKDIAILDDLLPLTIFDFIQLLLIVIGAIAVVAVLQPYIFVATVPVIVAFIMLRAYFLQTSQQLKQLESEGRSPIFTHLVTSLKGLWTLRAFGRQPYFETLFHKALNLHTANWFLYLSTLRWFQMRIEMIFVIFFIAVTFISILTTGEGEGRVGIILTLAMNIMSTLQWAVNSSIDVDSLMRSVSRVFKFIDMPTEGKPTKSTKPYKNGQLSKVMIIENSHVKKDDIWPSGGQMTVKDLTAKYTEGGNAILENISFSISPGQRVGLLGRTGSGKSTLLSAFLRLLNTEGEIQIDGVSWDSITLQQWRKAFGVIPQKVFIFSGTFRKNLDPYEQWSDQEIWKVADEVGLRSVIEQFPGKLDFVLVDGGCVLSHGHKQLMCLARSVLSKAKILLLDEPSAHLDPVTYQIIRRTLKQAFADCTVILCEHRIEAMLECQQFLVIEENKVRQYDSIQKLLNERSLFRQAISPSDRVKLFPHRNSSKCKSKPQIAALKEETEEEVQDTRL
# From the text: The YFP halide influx assay measures the functionality of the cystic fibrosis Transmembrane Conductance regulator (CFTR) channels in the cystic fibrosis bronchial epithelium cell line CFBE41o-. The assay is used to evaluate the capacity of compounds to increase the open probability of existing CFTR channels in the membrane. It makes use of the observation that the yellow fluorescent protein (YFP) variant YFP H148Q, I152L has its fluorescence substantially quenched by halide ions like Cl— and I—. (Galietta, Haggie, & Verkman, 2001) (Nagai, et al., 2002)
# For this purpose, CFBE41o-cells are seeded in 384 well plates (3000 CFBE cells/well). One day after seeding, the CFBE cells are transduced with adenoviral vectors that direct the expression of the CFTR ΔF508 mutant and of the YFP reporter. Cells are incubated at 27° C., 5% CO2 for 24 hours so as to allow for the proper folding and migration to the membrane of the CFTR channel or treated with a CFTR modulator during 24 h at 37° C.
# as §1, with “I— induced” for “I^−-induced”, “recorded […]” for “recorded”, “I—” for “I^−”, “2 min on an FDSS/μCell (Hamamatsu).” for “7 seconds.”, “36” for “7”
SMILES,EC50 (CFTR G551D mutant) [nM],EC50 (CFTR ΔF508 mutant) [nM],EC50 (CFTR G551D mutant; class symbol) [nM]
"CC(C)(O)C(=O)Nc1sc(S(=O)(=O)c2ccc(C#N)cc2)cc1C(N)=O [Compound 381, 5-(4-cyanophenyl)sulfonyl-2-[(2-hydroxy-2-methyl-propanoyl)amino] thiophene-3-carboxamide]",1310,55.9,
"C[C@H](CO)C(=O)Nc1sc(S(=O)(=O)c2ccc(OC(F)(F)F)cc2)cc1C(N)=O [Compound 382, 2-[[(2R)-3-hydroxy-2-methyl-propanoyl]amino]-5-[4-(trifluoromethoxy)phenyl] sulfonyl-thiophene-3-carboxamide]",873,66.1,
"CC(CO)C(=O)Nc1sc(S(=O)(=O)c2cc(Cl)ccc2OC(F)(F)F)cc1C(N)=O (stereo not shown) [Compound 386, 5-[5-chloro-2-(trifluoromethoxy)phenyl] sulfonyl-2-[(3-hydroxy-2-methyl-propanoyl)amino] thiophene-3-carboxamide]",25.9,2,
"CC(CO)C(=O)Nc1sc(S(=O)(=O)c2ccc(OC(F)(F)F)cn2)cc1C(N)=O (stereo not shown) [Compound 392, 2-[(3-hydroxy-2-methyl-propanoyl)amino]-5-[[5-(trifluoromethoxy)-2-pyridyl]sulfonyl] thiophene-3-carboxamide]",1600,84.6,
"CC(O)C(=O)Nc1sc(S(=O)(=O)c2ccc(C(F)(F)F)cn2)cc1C(N)=O (stereo not shown) [Compound 396, 2-(2-hydroxypropanoylamino)-5-[[5-(trifluoromethyl)-2-pyridyl]sulfonyl] thiophene-3-carboxamide]",1350,110,
"CC(O)C(=O)Nc1sc(S(=O)(=O)c2ccc(C(F)(F)F)cc2)cc1C(N)=O (stereo not shown) [Compound 398, 2-(2-hydroxypropanoylamino)-5-[4-(trifluoromethyl)phenyl]sulfonyl-thiophene-3-carboxamide]",515,22.8,
"Cc1cc(C#N)cc(S(=O)(=O)c2cc(C(N)=O)c(NC(=O)C(C)(C)O)s2)c1 [Compound 399, 5-(3-cyano-5-methyl-phenyl)sulfonyl-2-[(2-hydroxy-2-methyl-propanoyl)amino] thiophene-3-carboxamide]",1900,56.6,
"COc1ccc(S(=O)(=O)c2cc(C(N)=O)c(NC(=O)C(C)(C)O)s2)cc1 [Compound 400, 2-[(2-hydroxy-2-methyl-propanoyl)amino]-5-(4-methoxyphenyl)sulfonyl-thiophene-3-carboxamide]",1950,56.7,
"CC(O)C(=O)Nc1sc(S(=O)(=O)c2ccc(OC(F)F)cc2)cc1C(N)=O (stereo not shown) [Compound 403, 5-[4-(difluoromethoxy)phenyl] sulfonyl-2-(2-hydroxypropanoylamino) thiophene-3-carboxamide]",1610,27.5,
"CC(C)(O)C(=O)Nc1sc(S(=O)(=O)c2cccc(C#N)c2)cc1C(N)=O [Compound 409, 5-(3-cyanophenyl)sulfonyl-2-[(2-hydroxy-2-methyl-propanoyl)amino] thiophene-3-carboxamide]",2370,47.7,
"CN1COCc2cc(S(=O)(=O)c3cc(C(N)=O)c(NC(=O)C(C)(C)O)s3)ccc21 [Compound 434, 2-[(2-hdyroxy-2-methyl-propanoyl)amino]-5-[(1-methyl-2,4-dihydro-3,1-benzoxazin-6-yl)sulfonyl] thiophene-3-carboxamide]",1930,227,
"Cc1c(S(=O)(=O)c2ccc(C(F)(F)F)cc2F)sc(NC(=O)C(C)(C)O)c1C(N)=O [Compound 439, 5-[2-fluoro-4-(trifluoromethyl)phenyl]sulfonyl-2-[(2-hydroxy-2-methyl-propanoyl)amino]-4-methyl-thiophene-3-carboxamide]",6660,7.16,

# The next lines start with the values.
EC50 (CFTR G551D mutant) [nM],EC50 (CFTR ΔF508 mutant) [nM],EC50 (CFTR G551D mutant; class symbol) [nM],SMILES
2610,135,,"Cc1cc(S(=O)(=O)c2cc(C(N)=O)c(NC(=O)C(C)(C)O)s2)ncc1F [Compound 383, 5-[(5-fluoro-4-methyl-2-pyridyl)sulfonyl]-2-[(2-hydroxy-2-methyl-propanoyl)amino] thiophene-3-carboxamide]"
2740,159,,"Cc1ccc(S(=O)(=O)c2cc(C(N)=O)c(NC(=O)C(C)(C)O)s2)nc1 [Compound 384, 2-[(2-hydroxy-2-methyl-propanoyl)amino]-5-[(5-methyl-2-pyridyl)sulfonyl] thiophene-3-carboxamide]"
1180,62.6,,"CC(C)(O)C(=O)Nc1sc(S(=O)(=O)c2ccc(Cl)nc2)cc1C(N)=O [Compound 385, 5-[(6-chloro-3-pyridyl)sulfonyl]-2-[(2-hydroxy-2-methyl-propanoyl)amino] thiophene-3-carboxamide]"
695,43.3,,"CC(C)(O)C(=O)Nc1sc(S(=O)(=O)c2ccc(Cl)cc2OC(F)(F)F)cc1C(N)=O [Compound 388, 5-[4-chloro-2-(trifluoromethoxy)phenyl] sulfonyl-2-[(2-hyroxy-2-methyl-propanoyl)amino] thiophene-3-carboxamide]"
1860,294,,"CC(C)(O)C(=O)Nc1sc(S(=O)(=O)c2ccc(C(F)F)cn2)cc1C(N)=O [Compound 395, 5-[[5-(difluoromethyl)-2-pyridyl]sulfonyl]-2-[(2-hydroxy-2-methyl-propanoyl)amino] thiophene-3-carboxamide]"
1310,56.1,,"CC(C)(O)C(=O)Nc1sc(S(=O)(=O)c2ccc(C#N)cc2F)cc1C(N)=O [Compound 406, 5-(4-cyano-2-fluoro-phenyl)sulfonyl-2-[(2-hydroxy-2-methyl-propanoyl)amino] thiophene-3-carboxamide]"
,111,> 1000,"COc1c(Cl)ncnc1S(=O)(=O)c1cc(C(N)=O)c(NC(=O)C(C)(C)O)s1 [Compound 414, 5-(6-chloro-5-methoxy-pyrimidin-4-yl)sulfonyl-2-[(2-hydroxy-2-methyl-propanoyl)amino] thiophene-3-carboxamide]"
,305,> 1000,"COc1cnc(C(F)(F)F)nc1S(=O)(=O)c1cc(C(N)=O)c(NC(=O)C(C)(C)O)s1 [Compound 415, 2-[(2-hydroxy-2-methyl-propanoyl)amino]-5-[5-methoxy-2-(trifluoromethyl)pyrimidin-4-yl]sulfonyl-thiophene-3-carboxamide]"
6660,147,,"CC(C)(O)C(=O)Nc1sc(S(=O)(=O)c2nccnc2C(F)(F)F)cc1C(N)=O [Compound 417, 2-[(2-hydroxy-2-methyl-propanoyl)amino]-5-[3-(trifluoromethyl)pyrazin-2-yl]sulfonyl-thiophene-3-carboxamide]"
3330,76.1,,"CC(C)(O)C(=O)Nc1sc(S(=O)(=O)c2cc(CC#N)cc(OC(F)(F)F)c2)cc1C(N)=O [Compound 428, 5-[3-(cyanomethyl)-5-(trifluoromethoxy)phenyl] sulfonyl-2-[(2-hydroxy-2-methyl-propanoyl)amino] thiophene-3-carboxamide]"
2220,150,,"CC(C)(O)C(=O)Nc1sc(S(=O)(=O)c2ccc(C(F)(F)F)nn2)cc1C(N)=O [Compound 431, 2-[(2-hydroxy-2-methyl-propanoyl)amino]-5-[6-(trifluoromethyl)pyridazin-3-yl]sulfonyl-thiophene-3-carboxamide]"
1730,32.1,,"CC(C)(O)C(=O)Nc1sc(S(=O)(=O)c2cccnc2C(F)(F)F)cc1C(N)=O [Compound 436, 2-[(2-hydroxy-2-methyl-propanoyl)amino]-5-[[2-(trifluoromethyl)-3-pyridyl]sulfonyl] thiophene-3-carboxamide]"
,216,> 1000,"CC(C)(O)C(=O)Nc1sc(S(=O)(=O)c2nc(CO)ccc2C(F)(F)F)cc1C(N)=O [Compound 438, 2-[(2-hydroxy-2-methyl-propanoyl)amino]-5-[[6-(hydroxymethyl)-3-(trifluoromethyl)-2-pyridyl]sulfonyl] thiophene-3-carboxamide]"
2190,13,,"CC(C)(O)C(=O)Nc1sc(S(=O)(=O)c2cc(Cl)cnc2C(F)(F)F)cc1C(N)=O [Compound 440, 5-[[5-chloro-2-(trifluoromethyl)-3-pyridyl]sulfonyl]-2-[(2-hydroxy-2-methyl-propanoyl)amino] thiophene-3-carboxamide]"
